Values of other authors in patent US20030114475A1, “Methods for the treatment of addiction” (Addiction Therapies, Inc., priority 2001, published 2003).

Tests used:
[1] = in vivo
[2] = in vivo; remark: listed apart in the source
[3] = tested on: cocaine self-administration
dopamine transporter = dopamine transporter (Homo sapiens, UniProt Q01959)
dopamine transporter, sequence (Q01959 whole entry): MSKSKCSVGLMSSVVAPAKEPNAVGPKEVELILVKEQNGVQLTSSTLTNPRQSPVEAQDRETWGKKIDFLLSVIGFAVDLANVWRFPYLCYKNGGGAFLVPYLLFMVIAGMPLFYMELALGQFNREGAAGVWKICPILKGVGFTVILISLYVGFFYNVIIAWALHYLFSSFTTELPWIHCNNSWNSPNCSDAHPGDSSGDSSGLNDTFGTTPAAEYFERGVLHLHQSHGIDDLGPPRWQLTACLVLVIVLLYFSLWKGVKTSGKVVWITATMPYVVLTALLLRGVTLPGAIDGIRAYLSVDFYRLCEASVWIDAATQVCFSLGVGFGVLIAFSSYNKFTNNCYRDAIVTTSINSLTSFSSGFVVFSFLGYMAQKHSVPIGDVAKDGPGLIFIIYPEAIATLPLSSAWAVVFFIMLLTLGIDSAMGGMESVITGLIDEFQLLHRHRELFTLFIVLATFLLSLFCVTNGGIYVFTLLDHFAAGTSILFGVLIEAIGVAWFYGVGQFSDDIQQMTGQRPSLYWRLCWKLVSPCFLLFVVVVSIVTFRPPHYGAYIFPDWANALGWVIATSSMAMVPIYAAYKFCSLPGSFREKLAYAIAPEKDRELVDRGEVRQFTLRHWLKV

| SMILES | elimination half-life [1] [h] | time to peak plasma concentrations [1] [h] | oral availability [2] | effect on cocaine self-administration ([3]; rats) | lever presses for a cocaine infusion after pre-treatment ([3]; rats pre-treated with 53.8 mg/kg, oral, decreased from 150±20 lever presses, unpublished observations, Dr. Susan Schenck) [lever presses] | affinity and selectivity for the dopamine transporter (dopamine transporter) |
| --- | --- | --- | --- | --- | --- | --- |
| COC(=O)C(c1ccccc1)C1CCCCN1 (stereo not drawn) [Methylphenidate, methylphenidate] | 2 to 3 | 1 to 3 | – | – | – | – |
| Cc1ccc(-c2cc([C@@H]3C4CCC(C[C@@H]3c3ccc(Cl)cc3)N4C)on2)cc1 (stereo partly drawn) [RTI-336] | – | – | orally available | inhibits cocaine self-administration | 36±14 | high affinity and selectivity |
